According to PMC8456950, “Structure‐Guided Design of G‐Protein‐Coupled Receptor Polypharmacology” (Angewandte Chemie (International Ed. in English), 2021):

System: unilaterally 6-OHDA lesioned rats
Test: Rotation test in unilaterally 6-OHDA lesioned rats (model of Parkinsonism)
Assay type: in vivo
Settings: apomorphine 1 mg/kg IP, 6-OHDA lesioned rats
Description: Evaluation of compound 30 in rodent model of Parkinsonism. Male Sprague Dawley rats (150-200 g) were housed in air-conditioned rooms (12h dark/light cycle) at 20°C and a humidity of 53%. Experiments were performed in agreement with the European Communities Council Directive of 24 November 1986 (86/609/EEC) on the ethical use of animals and were approved by the local ethical committee (Stockholm North Ethical Committee, N105/16). Rats were anesthetized with ketamine (100 mg/kg, IP; Intervet)/xylazine (5 mg/kg, IP; Bayer, Kiel, Germany), pretreated with desipramine (25 mg/kg, IP; Sigma, St Louis, MO, USA)/pargyline (5 mg/kg, IP; Sigma), placed in a stereotaxi c instrument and injected with 6-OHDA (2.5 µl of a 5mg/ml solution; Sigma) into the median forebrain bundle (MFB) of the right hemisphere (AP -2.8 mm, ML -2.0 mm and V -9.0 mm). Two weeks after the unilateral 6-OHDA lesion, rats were injected with apomorphine (1 mg/kg, IP; Sigma) and their contralateral rotations were measured to determine the degree of nigrostriatal denervation. Four weeks after surgery, rats that were divided into two group according to the number of apomorphine-induced rotations. The rats were treated either with DMSO(17%)/saline (n=6) or compound 30 (n=7, 24 mg/kg, IP) dissolved in DMSO(17%)/saline. The number of rotations was calculated automatically with Noldus EthoVision XT11. 5 Software for 30 min following the drug administration. The two […]
groups were then compared by using a Mann-Whitney test. A second set of independent experiments using a new set of rats were carried out using the same protocol to assess the involvement of the D2R in the observed effect. In this case, rats were divided into four groups according to the number of apomorphine-induced rotations. The rats were treated with either DMSO(17%)/saline (n=6), raclopride (n=7, 2mg/kg, IP) dissolved in DMSO(17%)/saline, compound 30 (n=7, 24 mg/kg, IP) dissolved in DMSO(17%)/saline or the combination of raclopride (30 min pretreatment) and compound 30 (n=7). The rotation test was then performed for 30 min. […]

`CN1CCc2cccc3c2[C@H]1Cc1ccc(O)c(O)c1-3` [apomorphine, reference compound] was tested, and the “rotational behaviour induced by control D2R agonist” value was “contralateral rotational behaviour”.
